Experimental data from publication PMC9960827, “Cloning and Characterization of Trypanosoma congolense and T. vivax Nucleoside Transporters Reveal the Potential of P1-Type Carriers for the Discovery of Broad-Spectrum Nucleoside-Based Therapeutics against Animal African Trypanosomiasis” (International Journal of Molecular Sciences, 2023).
Marks after values point to notes of the source that are not given here.

What was measured:
TcoAT1 = format: cell-based, Trypanosoma congolense; settings: for ΔG0: Gibbs free energy of binding, from Km or Ki
In short: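 Transporter genes were expressed in an L. mexicana line lacking NT1 and NT2 (SUPKO), and 1 × 10^7 cells in HEPES/bicarbonate buffer pH 7.3 took up radiolabeled permeant through an oil layer, with or without inhibitor. Uptake was stopped with ice-cold unlabeled substrate or by centrifugation, and pellets were counted. IC50 against radiolabeled adenosine was converted to Ki by Cheng–Prusoff using the permeant Km.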

TbNT10 = tested on: TbNT10; parameters: method as in Al-Salabi et al. [40]; settings: called Km values; ref Al-Salabi et al. [40]; cited from earlier work
TvxNT3 = TvxNT3 (Trypanosoma vivax, UniProt F9WV62); test: cell-based; format: cell-based
Text: The information for the T. congolense adenosine transporter (TcoAT1) and four putative T. vivax nucleoside transporters was obtained in the TritrypDB (tritrypdb.org/tritrypdb) genome database. Primers were designed to flank each gene upstream of the 5′ end (forward) and downstream of the 3′ end (reverse) as described (primer sequences in Supplementary Table S2). Following amplification from the genomic DNA of T. congolense or T. vivax, DNA for each extracted gene was ligated into the pNUS-HcN expression vector doubly digested with NdeI using the NEBuilder kit according to the manufacturer’s instructions (New England Biolabs). Construct was transformed into competent E. coli cells, and ligation was confirmed by restriction enzyme digestion of isolated plasmid DNA followed by Sanger sequencing (Source BioScience, Nottingham, UK). Confirmed plasmids were then transfected into L. mexicana cell line in which both NT1 and NT2 were doubly knocked out (SUPKO) and derived from L. mexicana Cas9 [64] as described. Clones grown in medium containing 50 μg/mL neomycin (G418) were collected for further confirmation by PCR with genomic DNA using a forward primer of the transporter gene and a reverse primer of the plasmid.
Uptake assays using radiolabeled trypanocides and/or nucleosides were carried out as described previously. Briefly, parasite cultures were harvested, washed twice in assay buffer (33 mM HEPES, 98 mM NaCl, 4.6 mM KCl, 0.5 mM CaCl2, 0.07 mM MgSO4, 5.8 mM NaH3PO4, 0.03 mM MgCl2, 23 mM NaHCO3, 14 mM D-glucose, pH 7.3), then resuspended and adjusted to a density of 1 × 10^8 cells/mL in assay buffer. The radiolabeled permeant in the presence or absence of different concentrations of potential inhibitors reconstituted in 100 μL assay buffer was deposited on top of 250 μL oil mix in microcentrifuge tubes; 1 × 10^7 parasites in 100 μL assay buffer were added to the tube and incubated for a pre-determined interval. The reaction was stopped by the addition of 1 mL of a high concentration of ice-cold unlabeled substrate in assay buffer (‘stop solution’) and centrifugation, or by immediate centrifugation at […] as appropriate. The microcentrifuge tubes were flash-frozen, and the bottom of each tube containing the cell pellet was cut off and transferred to a scintillation vial. Cell pellets were lysed in 2% SDS, after which scintillation fluid (Scintlogic U, Lablogic) was added, followed by overnight incubation in the dark. Scintillation was measured in a 300SL (Hidex) scintillation counter (Hidex). All the assays were conducted in triplicate and analysis was carried out using Microsoft Excel and GraphPad Prism. All kinetic parameters were obtained on at least 3 separate occasions.
The dose-dependent uptake assay allowed for the affinity of nucleoside analogs to different nucleoside transporters to be determined by measuring the extent to which the analogs compete with and inhibit the uptake of radiolabel adenosine. This allowed for the determination of biochemical parameters such as Km and Vmax through the application of the Michaelis–Menten equation V0 = Vmax([substrate]/([substrate] + Km)). The 50% Inhibitory Concentration (IC50) of the purines and pyrimidines and their analogs was determined from non-linear regression to sigmoid curves with variable slope (Prism 8), and the IC50 of the inhibitor and the Km of the labeled permeant were then used to calculate the inhibition constant (Ki) of the analogs through the Cheng–Prusoff equation: Ki = IC50/(1 + (L/Km)), where L denotes the radiolabel concentration. The calculated Ki was in turn used to determine the Gibbs free energy (ΔG^0) of the inhibitor–transporter interaction using the equation: ΔG^0 = -RTln(Ki), where R represents the gas constant and T symbolizes the absolute temperature in Kelvin [104].

[1] = tested on: T. congolense adenosine transporter; test: [3H]-adenosine uptake and its inhibition in T. congolense IL3000 bloodstream forms; format: cell-based, Trypanosoma congolense; settings: for ΔG0, Gibbs free energy of interaction: calculated from Km or Ki
In short: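 Bloodstream-form T. congolense IL3000 (1 × 10^7 cells) in HEPES/bicarbonate buffer pH 7.3 took up [3H]-adenosine over a set interval, with or without inhibitor, ending by ice-cold unlabeled substrate stop or centrifugation through oil. Pellet radioactivity gave IC50 by sigmoid fit; Ki followed by Cheng–Prusoff using adenosine Km.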

[2] = tested on: T. b. brucei P1 (TbP1/NT2); settings: cited from earlier work
T. congolense IL3000 = tested on: T. congolense IL3000; parameters: method as in Hulpia et al. [38]; settings: values marked *; ref Hulpia et al. [38]; cited from earlier work
T.b.b. B48 = tested on: T.b.b. B48; parameters: method as in Hulpia et al. [38]; settings: compound marked *; ref Hulpia et al. [38]; cited from earlier work
T. congolense 6C3 [3] = tested on: T. congolense 6C3; parameters: method as in Hulpia et al. [38]; settings: values marked *; ref Hulpia et al. [38]; cited from earlier work
BSF T. congolense = test: Manual cell count of T. congolense cultures exposed to drug; format: cell-based, Trypanosoma congolense
Method: For the direct assessment of test compounds on parasite growth, a manual cell count of cultures grown in the presence or absence of test drugs was carried out to determine the effect of test drugs on the multiplication rate of the parasites as described. The cells were adjusted to the required density in 2 mL of the appropriate medium with or without the drug/compound of interest, in a 24-well plate, followed by incubation under standard conditions. The cells were then manually counted at intervals with a Neubauer cell chamber using a phase-contrast light microscope (Axioscope, Zeiss, Jena, Germany).

T. evansi = tested on: T. evansi; parameters: method as in Hulpia et al. [38]; settings: compound marked *; ref Hulpia et al. [38]; cited from earlier work
[4] = Resazurin toxicity assay on human embryonic kidney cells; format: cell-based; settings: human
Method: (§1) EC50 values were determined by plotting to an equation for a sigmoid curve with variable slope (GraphPad Prism 8). All values were the average of at least three independent determinations on different days.

[5] = tested on: human embryonic kidney (HEK) cells; test: as above; format: cell-based
Method: as §1

T. congolense IL3000 BSF = test: Nucleus/kinetoplast configuration (DAPI) of T. congolense exposed to drug; format: cell-based, Trypanosoma congolense; settings: 2× or 5× EC50, 8 h
Method: To assess the effect of the drug on the cellular morphology and configuration of nuclei and kinetoplasts, treated cells were collected after incubation period, fixed, DAPI-treated and viewed under an Olympus IX71 DeltaVision Core System microscope (Applied Precision, GE) using the SoftWoRx suite 2.0 software (Applied Precision, GE). At least 300 cells were scored per slide for the number of kinetoplasts (K) and nuclei (N) as 1N1K, 1N2K, 2N2K, MKMN (M = many) and ‘others’ (aberrant N/K distribution).

T. vivax = tested on: T. vivax; parameters: method as in Mabille et al. [69]; settings: added for comparison only; ref Mabille et al. [69]; cited from earlier work
T. congolense 6C3 [6] = test: microbe, parasite or virus in culture; format: cell-based, Trypanosoma congolense; settings: resistance factor = EC50 (test strain)/EC50(control strain)
Method: as §1

T. equiperdum = tested on: T. equiperdum; parameters: method as in Hulpia et al. [38]; settings: compound marked *; ref Hulpia et al. [38]; cited from earlier work

TvxNT3, sequence (F9WV62 entry or part of it): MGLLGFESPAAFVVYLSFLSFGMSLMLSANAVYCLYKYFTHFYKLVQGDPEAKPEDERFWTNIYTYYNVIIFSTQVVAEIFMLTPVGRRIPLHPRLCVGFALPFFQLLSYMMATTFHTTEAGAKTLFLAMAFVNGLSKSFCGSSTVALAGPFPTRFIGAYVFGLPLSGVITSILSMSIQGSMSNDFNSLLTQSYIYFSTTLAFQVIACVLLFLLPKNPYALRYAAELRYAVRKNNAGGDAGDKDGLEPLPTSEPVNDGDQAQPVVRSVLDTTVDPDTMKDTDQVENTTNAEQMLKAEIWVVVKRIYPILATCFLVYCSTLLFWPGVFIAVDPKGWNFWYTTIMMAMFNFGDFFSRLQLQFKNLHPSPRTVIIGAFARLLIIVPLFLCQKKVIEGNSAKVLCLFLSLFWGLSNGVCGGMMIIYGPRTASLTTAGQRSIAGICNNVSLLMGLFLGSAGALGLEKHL

Nc1ncnc2c1ncn2[C@@H]1O[C@H](CO)[C@@H](O)[C@H]1O [Adenosine]
Km (TcoAT1; 0.05 µM [3H]-adenosine, 10 s incubation): 0.42 ± 0.03 µM
ΔG0 (TcoAT1): -8.7 kcal/mol
Km (TbNT10): 0.41 µM
level of uptake of adenosine (TvxNT3; 50 nM [3H]-adenosine, SUPKO+TvxNT3): 3.9 × 10^−3 pmol(10^7 cells)^−1s^−1
remaining activity at 100 µM (TvxNT3; read-out: [3H]-adenosine uptake remaining in presence of inhibitor): < 25%
Km ([1]; 0.05 µM [3H]-adenosine, 30 s incubation, bloodstream forms): 0.48 ± 0.03 µM
rate of adenosine uptake ([1]; 50 nM [3H]-adenosine, cultured IL3000): 0.014 ± 0.0037 pmol(10^7 cells)^−1s^−1
Vmax of adenosine uptake ([1]; 30 s incubation): 0.11 ± 0.02 pmol(10^7 cells)^−1s^−1
ΔG0, Gibbs free energy of interaction [1]: -8.6 kcal/mol
Km ([2]; T. b. brucei bloodstream forms, read-out: Tbb P1 Km for adenosine): 0.36 ± 0.05 µM
Tbb P1 ΔG0 [2]: -8.8 kcal/mol

Nc1ncnc2c1c(Cl)cn2[C@@H]1O[C@H](CO)C[C@H]1O [FH8470, 7-chloro-7-deaza-3′-deoxyadenosine]
EC50 (T. congolense IL3000): 1.2 ± 0.2 nM
EC50 (T.b.b. B48): 6.8 ± 0.9 nM
EC50 (T. congolense 6C3 [3]): 0.66 ± 0.03 nM
time to killing of the parasites (BSF T. congolense; 5 × EC50, exposure for 48 h or continuously): ≤ 72 h
time to death of the cells (BSF T. congolense; 15 × EC50, short exposure (8 h), washed out or continuous): ≤ 48 h
EC50 (T. evansi): 1.8 ± 0.2 nM
Ki (TcoAT1; 0.05 µM [3H]-adenosine, 10 s, IC50 converted to Ki, read-out: Ki on the transport of [3H]-adenosine): 60600 ± 10700 nM
ΔG0 (TcoAT1): -5.76 kcal/mol
EC50 [4]: 12000 ± 320 nM
SI T. congolense ([5]; selectivity index = EC50 (HEK cells)/EC50 (T. congolense)): 9800
SI T. equiperdum ([5]; selectivity index = EC50 (HEK cells)/EC50 (T. equiperdum)): 21,100
SI T. evansi ([5]; selectivity index = EC50 (HEK cells)/EC50 (T. evansi)): 6830
reduction of the number of cells with 2N2K configuration (T. congolense IL3000 BSF): 40–50 % of untreated control
EC50 (T. vivax): 96 ± 82 nM
Ki ([1]; 0.05 µM [3H]-adenosine, 30 s, IC50 converted to Ki, read-out: Ki on the transport of [3H]-adenosine): 17500 ± 3400 nM
ΔG0, Gibbs free energy of interaction [1]: -6.48 kcal/mol
T. congolense 6C3 RF (T. congolense 6C3 [6]): 0.53 ^a
EC50 (T. equiperdum): 0.57 ± 0.08 nM
